From patent US20120137390A1, “MATERIALS AND METHODS FOR REGENERATION AND TRANSFORMATION OF TREES” (ArborGen Inc., priority 2009, published 2012)

Assays:
Assay type in all cases: cell-based
[1] = tested on: E. grandis clone 6075 explants; test: Adventitious shoot regeneration from explants on regeneration medium, clone 6075
Description: (§1) Plant Materials and culture conditions. All elite clones were maintained as shoot clumps in Eucalyptus maintenance (EM) medium (Table 1) in magenta boxes or large disposable vessels and subcultured every 4-6 weeks. Shoot clumps were divided as needed and maintained as stock culture. Unless noted otherwise, all cultures were grown under shaded, cool fluorescent light with a light intensity of 30-40 gE/m^2/s with a photoperiod of 16 hours, and a temperature of 21° C.
(§2) Although leaves, petioles, internodes, floral tissues, and embryogenic tissues can be used for transformation and subsequent regeneration, leaf explants were selected because leaves are abundant. For transformation, explants of E. grandis clones 6075 and 6084 were incubated with Agrobacterium and were placed on co-culture medium, which was the same as the regeneration medium (Table 2) except with the following modifications: the addition of Agrobacterium inducer acetosyringone and the addition of plant growth regulators that are enriched in auxin. MS medium (Murashige and Skoog 1962) was used in the present co-culture medium; however, other salt media, such as Woody Plant Medium (WPM) salts (Loyd and McCown, 1980) or Lepoivre medium, may be used. Also, other Agrobacterium inducers may be used. Plant explants were co-cultured for four days under low light conditions or in the dark on the co-culture medium.
(§3) To test the ability of various cytokinins to stimulate adventitious regeneration, the effects of 4-CPPU, Zeatin, TDZ, meta-topolin, and adenine sulfate were compared. The levels of cytokinins varied from 0.025 to 10 μM. The base medium for this matrix is named H2—2.0 (or H2—2 for short), which is the primary MS-based regeneration medium (Table 2). The medium has been effective to induce shoot regeneration from many Eucalyptus species including E. grandis, E. dunnii, E. camaldulensis, E. urophylla, E. occidentalis, and E. saligna. The antibiotic timentin was added at 250 mg/L final concentration. Shoot regeneration was measured as the frequency of explants produced shoots. Explants were cultured on the regeneration medium for about 8-10 weeks before collection of final regeneration data.

[2] = tested on: E. grandis clone 6084 explants; test: Adventitious shoot regeneration from explants on regeneration medium, clone 6084
Description: as §1, §2, §3

[3] = tested on: E. amplifolia clone EA5490; test: Regeneration screening matrix, clone EA5490; settings: meta-topolin at least 2.5 μM
Description: as §3
(§4) Combinations of meta-mopolin, 4-CPPU, and TDZ that gave the best regeneration across multiple experiments were combined with two standard regeneration media that have worked with other clones in the past to become a regeneration screening matrix for new clonal material.

[4] = tested on: E. urophylla X grandis S-519; test: Regeneration screening matrix, clone S-519; settings: meta-topolin at least 2.5 μM, clone S519
Description: as §3, §4

[5] = lower concentrations of 4-CPPU (0.025, 0.05 μM)

O=C(Nc1ccccc1)Nc1ccnc(Cl)c1 [4-CPPU, N-(2-Chloro-4-pyridyl)-N′-phenylurea]
adventitious shoot formation (in words) ([1]; 4-CPPU at 0.1 μM): effective | adventitious shoot formation (in words) [1, 5]: not effective in induce adventitious shoot formation | adventitious shoot formation (in words) ([2]; 4-CPPU at 0.1 μM): effective | adventitious shoot formation (in words) [2, 5]: not effective in induce adventitious shoot formation

O=C(Nc1ccccc1)Nc1cnns1 [TDZ, 1-phenyl-3-(1,2,3-thiadiazol-5-yl)urea]
promotion of shoot regeneration (in words) ([1]; TDZ alone at 0.1 μM): not effective in promotion of shoot regeneration | promotion of shoot regeneration (in words) ([2]; TDZ alone at 0.1 μM): not effective in promotion of shoot regeneration

Oc1cccc(CNc2ncnc3nc[nH]c23)c1 [meta-topolin, N^6-(meta-hydroxybenzyl)adenine]
adventitious shoot formation (in words) ([1]; meta-topolin at least 2.5 μM): significant increase in adventitious shoot formation | adventitious shoot regeneration (in words) [3]: significantly higher adventitious shoot regeneration | adventitious shoot formation (in words) ([2]; meta-topolin at least 2.5 μM): significant increase in adventitious shoot formation | adventitious shoot regeneration (in words) [4]: significantly higher adventitious shoot regeneration
